Laboratory results from patent US20250122192A1, “5-PYRIMIDINECARBOXAMIDE DERIVATIVES AND METHODS OF USING THE SAME” (Rgenta Therapeutics, Inc., priority 2021, published 2025).
Counter-ions that a name gives are not always drawn.

Each compound was assayed on PMS1 (assay: Mini-gene reporter assay-PMS1). Details: Homo sapiens, HEK293, PMS1 mini-gene firefly luciferase reporter transiently transfected into HEK293 cells; read-out: PMS1 IC50.
Format: cell-based
Outline: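 Compound dilution series in duplicate added to transiently transfected HEK293 reporter cells, then incubated; EC50 from Levenberg-Marquardt fit of luminescence. The reporter joins the alternatively skipped exon, its neighbouring introns and exons to firefly luciferase, so induced inclusion gives more signal.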

Row | SMILES | IC50
1 | CCOc1nc(N2CC3CCCC(C2)N3)ncc1C(=O)Nc1cc(F)c2nc(C)cn2c1 [Compound 185] | 1000 to 3000 nM
2 | CCOc1nc(N(C)[C@@H]2C[C@H]3CC[C@@H](C2)N3)ncc1C(=O)Nc1cc(F)c2nc(C)cn2c1 [Compound 186] | < 500 nM
3 | CCOc1nc(N2CCCC2CNC)ncc1C(=O)Nc1cc(F)c2nc(C)cn2c1 (stereo not shown) [Compound 188] | 1000 to 3000 nM
4 | COCc1nc(N(C)CC2CNCCO2)ncc1C(=O)Nc1cc(F)c2nc(C)cn2c1 (stereo not shown) [Compound 189] | > 3000 nM
5 | CCOc1nc(N(C)C2CC3CCC(C2)N3)ncc1C(=O)Nc1cc(F)c2nc(C)cn2c1 (stereo not shown) [Compound 190] | < 500 nM
6 | CCOc1nc(N2CCNC(C)CC2)ncc1C(=O)Nc1cc(F)c2nc(C)cn2c1 (stereo not shown) [Compound 191] | < 500 nM
7 | CCOc1nc(N2CCNC3CC32)ncc1C(=O)Nc1cc(F)c2nc(C)cn2c1 (stereo not shown) [Compound 192] | 500 to 1000 nM
8 | CCOc1nc(N2CCC[C@H]3CNC[C@H]32)ncc1C(=O)Nc1cc(F)c2nc(C)cn2c1 [Compound 193] | 500 to 1000 nM
9 | CCOc1nc(N2CCCC(N3CCNCC3)C2)ncc1C(=O)Nc1cc(F)c2nc(C)cn2c1 (stereo not shown) [Compound 194] | 500 to 1000 nM
10 | CCOc1nc(N2CCOC3(CCNC3)C2)ncc1C(=O)Nc1cc(F)c2nc(C)cn2c1 (stereo not shown) [Compound 195] | 1000 to 3000 nM
11 | CCOc1nc(N2C[C@@H]3CCCN[C@@H]3C2)ncc1C(=O)Nc1cc(F)c2nc(C)cn2c1 [Compound 197] | < 500 nM
12 | CCOc1nc(N(C)CC2CCCN2)ncc1C(=O)Nc1cc(F)c2nc(C)cn2c1 (stereo not shown) [Compound 200] | 1000 to 3000 nM
13 | CCOc1nc(N2CCC3CCNCC32)ncc1C(=O)Nc1cc(F)c2nc(C)cn2c1 (stereo not shown) [Compound 201] | < 500 nM
14 | CCNC1CN(c2ncc(C(=O)Nc3cc(F)c4nc(C)cn4c3)c(OCC)n2)C1 [Compound 202] | 500 to 1000 nM
15 | CCOc1nc(N2CCC(C3CCCN3)CC2)ncc1C(=O)Nc1cc(F)c2nc(C)cn2c1 (stereo not shown) [Compound 203] | < 500 nM
16 | CCOc1nc(N2CCC3(CC2)CNCCO3)ncc1C(=O)Nc1cc(F)c2nc(C)cn2c1 [Compound 204] | 500 to 1000 nM
17 | CCOc1nc(N2CCNCCC2C)ncc1C(=O)Nc1cc(F)c2nc(C)cn2c1 (stereo not shown) [Compound 205] | 500 to 1000 nM
18 | CCOc1nc(N2CC3(CNC3)C2)ncc1C(=O)Nc1cc(F)c2nc(C)cn2c1 [Compound 206] | < 500 nM
19 | CCOc1nc(N2CCC3(CCNCC3)CC2)ncc1C(=O)Nc1cc(F)c2nc(C)cn2c1 [Compound 207] | < 500 nM
20 | CCOc1nc(N2CCC3(CCCNC3)C2)ncc1C(=O)Nc1cc(F)c2nc(C)cn2c1 (stereo not shown) [Compound 208] | < 500 nM
21 | CCOc1nc(N(C)CC2CCNC2)ncc1C(=O)Nc1cc(F)c2nc(C)cn2c1 (stereo not shown) [Compound 210] | 500 to 1000 nM
22 | CCOc1nc(N2CCC(CNC)C2)ncc1C(=O)Nc1cc(F)c2nc(C)cn2c1 (stereo not shown) [Compound 211] | < 500 nM
23 | CCOc1nc(N(C)C2CCNCC2)ncc1C(=O)Nc1cc(F)c2nc(C)cn2c1 [Compound 241] | < 500 nM
24 | COc1nc(N(C)C2CCNCC2)ncc1C(=O)Nc1cn2cc(C)nc2c(C)n1 [Compound 253, N-(2,8-dimethylimidazo[1,2-a]pyrazin-6-yl)-4-methoxy-2-(methyl(piperidin-4-yl)amino) pyrimidine-5-carboxamide formate] | < 500 nM
25 | CCOc1nc(N(C)C2CCNCC2)ncc1C(=O)Nc1cn2cc(C)nc2cn1 [Compound 256, 4-ethoxy-2-(methyl(piperidin-4-yl)amino)-N-(2-methylimidazo[1,2-a]pyrazin-6-yl)pyrimidine-5-carboxamide] | < 500 nM
26 | COc1nc(N(C)C2CCNCC2)ncc1C(=O)Nc1cn2cc(C)nc2cn1 [Compound 257, 4-methoxy-2-(methyl(piperidin-4-yl)amino)-N-(2-methylimidazo[1,2-a]pyrazin-6-yl)pyrimidine-5-carboxamide formate] | 500 to 1000 nM
27 | CCOc1nc(N(CC)C2CCNCC2)ncc1C(=O)Nc1cc(F)c2nn(C)cc2c1 [Compound 258, 4-ethoxy-2-(ethyl(piperidin-4-yl)amino)-N-(7-fluoro-2-methyl-2H-indazol-5-yl)pyrimidine-5-carboxamide formate] | < 500 nM

The remaining lines, values ahead:

Row | IC50 | SMILES
28 | < 500 nM | CCOc1nc(N2CC3(CCNC3)C2)ncc1C(=O)Nc1cc(F)c2nc(C)cn2c1 [Compound 212]
29 | < 500 nM | CCOc1nc(N2CCNC(C)C2C)ncc1C(=O)Nc1cc(F)c2nc(C)cn2c1 (stereo not shown) [Compound 213]
30 | < 500 nM | CCNC1CCN(c2ncc(C(=O)Nc3cc(F)c4nc(C)cn4c3)c(OCC)n2)CC1 [Compound 214]
31 | 1000 to 3000 nM | CCOc1nc(N(CC)C2CCCNC2)ncc1C(=O)Nc1cc(F)c2nc(C)cn2c1 (stereo not shown) [Compound 215]
32 | < 500 nM | CCOc1nc(N2CCC(CNC)CC2)ncc1C(=O)Nc1cc(F)c2nc(C)cn2c1 [Compound 216]
33 | 1000 to 3000 nM | CCOc1nc(N(C)CC2CCCNC2)ncc1C(=O)Nc1cc(F)c2nc(C)cn2c1 (stereo not shown) [Compound 217]
34 | > 3000 nM | CCOc1nc(N2CC(N3CCNCC3)C2)ncc1C(=O)Nc1cc(F)c2nc(C)cn2c1 [Compound 218]
35 | < 500 nM | CCOc1nc(N2CCC3(CCNCC3)C2)ncc1C(=O)Nc1cc(F)c2nc(C)cn2c1 [Compound 219]
36 | < 500 nM | CCOc1nc(N2CCC3(CNC3)C2)ncc1C(=O)Nc1cc(F)c2nc(C)cn2c1 [Compound 220]
37 | 1000 to 3000 nM | CCOc1nc(N2CCN(C3CNC3)CC2)ncc1C(=O)Nc1cc(F)c2nc(C)cn2c1 [Compound 221]
38 | 1000 to 3000 nM | CCOc1nc(N2CCC(N3CCNCC3)CC2)ncc1C(=O)Nc1cc(F)c2nc(C)cn2c1 [Compound 222]
39 | > 3000 nM | CCOc1nc(N2CCOC3(CCNCC3)C2)ncc1C(=O)Nc1cc(F)c2nc(C)cn2c1 [Compound 223]
40 | 1000 to 3000 nM | CCOc1nc(N2CCN(C3CCNC3)CC2)ncc1C(=O)Nc1cc(F)c2nc(C)cn2c1 (stereo not shown) [Compound 224]
41 | < 500 nM | CCOc1nc(N2CCC3(CCNC3)CC2)ncc1C(=O)Nc1cc(F)c2nc(C)cn2c1 [Compound 225]
42 | < 500 nM | CCOc1nc(N2CCN[C@@H](C(C)C)C2)ncc1C(=O)Nc1cc(F)c2nc(C)cn2c1 [Compound 226]
43 | 500 to 1000 nM | CCOc1nc(N2CCCC(CNC)C2)ncc1C(=O)Nc1cc(F)c2nc(C)cn2c1 (stereo not shown) [Compound 228]
44 | < 500 nM | CCOc1nc(N2CCC(NC)C2)ncc1C(=O)Nc1cc(F)c2nc(C)cn2c1 (stereo not shown) [Compound 229]
45 | < 500 nM | CCOc1nc(N2CC(C)NCC2C)ncc1C(=O)Nc1cc(F)c2nc(C)cn2c1 (stereo not shown) [Compound 230]
46 | < 500 nM | CCOc1nc(N2C[C@@H](C)N[C@@H](C)C2)ncc1C(=O)Nc1cc(F)c2nc(C)cn2c1 [Compound 231]

Row | IC50 | SMILES
47 | 500 to 1000 nM | CCOc1nc(N2CCCC(NC)C2)ncc1C(=O)Nc1cc(F)c2nc(C)cn2c1 (stereo not shown) [Compound 232]
48 | 500 to 1000 nM | CCOc1nc(N2C[C@@H]3C[C@H]2CN3)ncc1C(=O)Nc1cc(F)c2nc(C)cn2c1 [Compound 233]
49 | < 500 nM | CCOc1nc(N2CCC3(CCNC3)C2)ncc1C(=O)Nc1cc(F)c2nc(C)cn2c1 (stereo not shown) [Compound 234]
50 | < 500 nM | CCOc1nc(N2CCC3(CC2)CNC3)ncc1C(=O)Nc1cc(F)c2nc(C)cn2c1 [Compound 235]
51 | > 3000 nM | CCOc1nc(N(C)CC2CCNCC2)ncc1C(=O)Nc1cc(F)c2nc(C)cn2c1 [Compound 237]
52 | < 500 nM | CCOc1nc(N(C)C2CCNC2)ncc1C(=O)Nc1cc(F)c2nc(C)cn2c1 (stereo not shown) [Compound 238]
53 | < 500 nM | CCOc1nc(N2CC3(CCNCC3)C2)ncc1C(=O)Nc1cc(F)c2nc(C)cn2c1 [Compound 239]
54 | < 500 nM | CCOc1nc(N2CCNCC2C)ncc1C(=O)Nc1cc(F)c2nc(C)cn2c1 (stereo not shown) [Compound 240]
55 | < 500 nM | CCOc1nc(N2CC(NC)C2)ncc1C(=O)Nc1cc(F)c2nc(C)cn2c1 [Compound 242]
56 | < 500 nM | CCOc1nc(N2CCNC(C)C2)ncc1C(=O)Nc1cc(F)c2nc(C)cn2c1 (stereo not shown) [Compound 243]
57 | < 500 nM | CCOc1nc(N(C)C2CCCNC2)ncc1C(=O)Nc1cc(F)c2nc(C)cn2c1 (stereo not shown) [Compound 244]
58 | < 500 nM | CCOc1nc(N2CC3(CC(NC)CO3)C2)ncc1C(=O)Nc1cc(F)c2nc(C)cn2c1 (stereo not shown) [Compound 246]
59 | < 500 nM | CCNC1COC2(C1)CN(c1ncc(C(=O)Nc3cc(F)c4nc(C)cn4c3)c(OCC)n1)C2 (stereo not shown) [Compound 247]
60 | < 500 nM | CCOc1nc(N2CC3(CC(NC(C)C)CO3)C2)ncc1C(=O)Nc1cc(F)c2nc(C)cn2c1 (stereo not shown) [Compound 248]
61 | > 3000 nM | CCOc1nc(N(CC)C2CCCNCC2)ncc1C(=O)Nc1cn2cc(C)nc2c(C)n1 (stereo not shown) [Compound 249]
62 | 1000 to 3000 nM | CCOc1nc(NC2CCNCC2)ncc1C(=O)Nc1cn2cc(C)nc2c(C)n1 [Compound 251, N-(2,8-dimethylimidazo[1,2-a]pyrazin-6-yl)-4-ethoxy-2-(piperidin-4-ylamino) pyrimidine-5-carboxamide formate]
63 | > 3000 nM | CCOc1nc(N2CCN(CC)CC2)ncc1C(=O)Nc1cc(F)c2nn(C)cc2c1 [Compound 252, 4-ethoxy-2-(4-ethylpiperazin-1-yl)-N-(7-fluoro-2-methyl-2H-indazol-5-yl)pyrimidine-5-carboxamide hydrochloride]
64 | > 3000 nM | CCOc1nc(N2CC(NC)C2)ncc1C(=O)Nc1cc(F)c2nn(C)cc2c1 [Compound 254, 4-ethoxy-N-(7-fluoro-2-methyl-2H-indazol-5-yl)-2-(3-(methylamino)azetidin-1-yl)pyrimidine-5-carboxamide hydrochloride]
65 | > 3000 nM | CCOc1nc(N2CC(NC)C2)ncc1C(=O)Nc1ccc2nn(C)cc2c1 [Compound 255, 4-ethoxy-N-(2-methyl-2H-indazol-5-yl)-2-(3-(methylamino)azetidin-1-yl)pyrimidine-5-carboxamide]

Same assay, conditions: Homo sapiens; at 5 μM; PMS1 mini-gene firefly luciferase reporter in HEK293 cells; read-out: PMS1% Effect at 5 μM

Row | SMILES | activation at 5 µM
66 | CCOc1nc(N2CCCC2C(=O)N2CCNCC2)ncc1C(=O)Nc1cc(F)c2nc(C)cn2c1 (stereo not shown) [Compound 196] | < 50%
67 | CCOc1nc(N2CCNCC2C(C)C)ncc1C(=O)Nc1cc(F)c2nc(C)cn2c1 (stereo not shown) [Compound 227] | < 50%
